Experimental data taken from patent publication US12139472B2, “Inhibitors of advanced glycation end products” (priority 2019, dated 2024).

Experiments:
CYP3A [1] = format: in vitro ADME, human; conditions: HLM
Description: (§1) Compound 5 (PTG-630 free base) and 7 additional compounds for CYP3A P450 inhibition.
(§2) Imidazole (and benzimidazole) containing drugs are ubiquitous in pharmacological practice; however, drug-drug interactions (DDI) have been observed with some imidazole-containing classes, such as the antifungal azoles typified by ketoconazole. It is believed that the imidazole moiety accounts for their ability to inhibit CYP3A, the major DDI enzyme that metabolizes up to 50% of common drugs. The compounds of the disclosure incorporate an imidazole moiety attached to a pyridine ring via the imidazole C-2. They all share an imidazo-hydroxypyridine theme that can bind redox metal ions, while differing in the nature of the X side-chain. The potential of the compounds of the disclosure for DDI was evaluated by screening their inhibition of CYP3A.
Two studies were conducted in human liver microsomes (HLM). Lead candidate PTG-630 was tested using the Eurofins G232 panel (Drug Metab Dispos. 2001 January; 29(1):23-9), where inhibition was measured against seven CYP enzymes; CYP3A4 was tested using two different substrates, midazolam and testosterone. In a second study, inhibition of CYP3A4 (midazolam substrate only) was compared for 8 compounds of interest. The test protocol involved one-point measurements in duplicate, where inhibition was measured at a fixed 10 μM concentration of candidate inhibitors. In all cases, the substrate for each CYP enzyme was at a concentration equal to its specific Km value that was independently obtained from an 8-point dose-response study. Based on the observed value for percent inhibition for each test compound, we calculated of an IC50 assuming a competitive mode of inhibition. If percent inhibition for an inhibitor at a concentration of [I] is denoted by P, then: IC50=[I]*(100−P)/P In the single-point assay, [I] is 10 μM. If measured inhibition is 10%, then IC50=10*(100-10)/10=90 μM. […] As discussed in Lin et al. (J Pharm Sci. 2007 September; 96(9):2485-93; doi: 10.1002/jps.20884), CYP inhibition is broadly interpreted as being “potent” if IC50<1 μM, “moderate” if 1 μM<IC50<10 μM, and “weak” if IC50>10 μM.

[2] = Pharmacokinetic study for PTG-630 (IV and PO): plasma, whole blood, tissues, urine; format: in vivo, Sprague Dawley rats
Experimental: The samples were analyzed in two batches with standards and QCs prepared on rat plasma and rat urine. Analyst® 1.6 (SCIEX) software was used for statistical analysis of bioanalytical data. […] Dose samples collected at 0.083 h-6 h postdose were diluted 4 times with SD rat plasma prior to plating. Twenty-four (24) hours plasma samples were assayed without dilution. […] Two sciatic nerve samples were excluded from analysis, due to the insufficient sample size. […] The 12 non-cannulated animals were arbitrarily assigned to groups upon arrival and housed together throughout the experiment. The animals were acclimated to their designated housing for at least 24 hours before the first day of dosing. […] Blood samples were collected via cannula from IV dosed rats or by cardiac stick from PO dosed rats at the specified time points for sampling pharmacokinetics. Blood was collected into K2EDTA tubes. Tubes were mixed gently after blood collection, chilled and centrifuged at 3000 rpm, 4° C. within 30 minutes upon collection. The samples were centrifuged at 4° C. and the resultant plasma separated. […] Urine from Group 1 was collected via polycarbonate tubes from rats placed in drug metabolism cages. Urine was maintained and room temperature through the collection period.

CYP3A [3] = target: T1, CYP3A (Homo sapiens, UniProt P08684); format: in vitro ADME; conditions: HLM
T1 construct: Two studies were conducted in human liver microsomes (HLM); tissue Eurofins G232 panel; host or cells: human liver microsomes
Description: as §1, §2
Two studies were conducted in human liver microsomes (HLM). Lead candidate PTG-630 was tested using the Eurofins G232 panel (Drug Metab Dispos. 2001 January; 29(1):23-9), where inhibition was measured against seven CYP enzymes; CYP3A4 was tested using two different substrates, midazolam and testosterone. In a second study, inhibition of CYP3A4 (midazolam substrate only) was compared for 8 compounds of interest. The test protocol involved one-point measurements in duplicate, where inhibition was measured at a fixed 10 μM concentration of candidate inhibitors. In all cases, the substrate for each CYP enzyme was at a concentration equal to its specific Km value that was independently obtained from an 8-point dose-response study. Based on the observed value for percent inhibition for each test compound, we calculated of an IC50 assuming a competitive mode of inhibition. If percent inhibition for an inhibitor at a concentration of [I] is denoted by P, then: IC50=[I]*(100−P)/P In the single-point assay, [I] is 10 μM. If measured inhibition is 10%, then IC50=10*(100-10)/10=90 μM. […]

[4] = plasma, PO 100 mg/kg vs IV 5 mg/kg

T1 sequence (P08684 2-503): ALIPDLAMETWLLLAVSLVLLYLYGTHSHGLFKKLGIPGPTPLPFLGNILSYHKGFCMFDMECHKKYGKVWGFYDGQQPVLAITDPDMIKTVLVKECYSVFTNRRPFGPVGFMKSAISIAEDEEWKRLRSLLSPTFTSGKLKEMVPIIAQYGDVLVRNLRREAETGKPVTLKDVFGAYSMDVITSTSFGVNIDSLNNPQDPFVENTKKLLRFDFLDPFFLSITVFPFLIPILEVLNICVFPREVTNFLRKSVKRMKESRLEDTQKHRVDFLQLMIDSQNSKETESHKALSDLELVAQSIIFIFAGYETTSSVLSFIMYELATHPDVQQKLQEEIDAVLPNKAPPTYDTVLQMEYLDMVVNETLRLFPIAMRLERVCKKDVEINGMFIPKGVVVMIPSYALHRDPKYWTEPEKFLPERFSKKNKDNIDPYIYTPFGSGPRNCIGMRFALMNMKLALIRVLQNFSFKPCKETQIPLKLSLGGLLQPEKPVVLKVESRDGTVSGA

## Cc1ncc(CN2CCOCC2)c(-c2ncc[nH]2)c1O [PTG-630]
CYP3A [1]; midazolam, from one-point % inhibition at 10 μM, IC50=[I]*(100−P)/P
  Estimated IC50: — None
CYP3A [1]; substrate midazolam at Km, Inhib Conc. 1.0E−05 M
  P % inhib: −12.1%
[2]; [4]
  fold decrease in AUClast for PO route over IV route: 4 fold
  fold decrease in mean Cmax for PO route over IV route: 17 fold
[2]; rat, in vivo
  Mean Residence Time (MRT) in plasma, single IV versus PO group: comparable
  bioavailable, PO route, based on AUCinf: < 1%
  increase in the half-life in plasma, IV route in comparison with PO route: 4.25 folds
[2]; rat, in vivo, iv
  terminal phase half-life: 15.8 h
[2]; rat, in vivo, iv, 5 mg/kg
  AUClast: 34000 ng·h/mL
  Cmax: 20,400 ng/mL
[2]; rat, in vivo, po
  AUC last in liver higher than in plasma: 2.6 folds
  Elimination phase half-life (t1/2): 1.35 h
  Half-life: 4.53 h
  Tmax in tissues: 1 h
  absorption in tissues (in words): rapidly absorbed in tissues without delay
  detection in tissues 24 hours postdose: not detectable in any tissue, except plasma
  exposure in kidney higher than in plasma, based on Cmax: 3.4 folds
  exposure in liver higher than in plasma, based on Cmax: 5.47 folds
  exposure in muscle (lowest) versus plasma: comparable to those in plasma
  half-life: 3.71 h
  half-life in brain relative to plasma (times higher): 1.3 times
  level of exposure in selected tissues exceeds the exposure in plasma (up to): 3-5 folds
  quantifiable in tissues: quantifiable in all tested tissues
[2]; rat, in vivo, po, 100 mg/kg
  AUClast: 8600 ng·h/mL
[2]; rat, po
  blood brain permeability (in words): indicating blood brain permeability
CYP3A [3]; CYP3A, substrate testosterone at Km, Inhib Conc. 1.0E−05 M
  P % inhib: 1.56%
CYP3A [3]; CYP3A, testosterone, from one-point % inhibition at 10 μM, IC50=[I]*(100−P)/P, read-out: Estimated IC50
  IC50: 631 µM
CYP3A [3]; 10 μM
  CYP3A inhibition using testosterone as substrate (in words): very weak inhibition
